{"source": "paper PMC8022858", "about": "“Discovery of bone morphogenetic protein 7-derived peptide sequences that attenuate the human osteoarthritic chondrocyte phenotype” (Molecular Therapy. Methods & Clinical Development, 2021)", "tested_on": "primary human OA articular chondrocytes (OA-HACs)", "assay": "BMP7 peptide library screening, quantitative real-time PCR of OA chondrocyte phenotype genes", "assay_type": "cell-based", "conditions": "for expression of SOX9, COL2A1, and NKX3-2 mRNA / expression of RUNX2, COL10A1, ALPL, MMP13, ADAMTS5, COX-2, and IL6 mRNA: 24 h, 1, 10, 100 or 1,000 nM peptide, normalized to 28S rRNA; for expression of SOX9, COL2A1, and NKX3-2 mRNA: relative to control (Figure 2A); for expression of RUNX2, COL10A1, ALPL, MMP13, ADAMTS5, COX-2, and IL6 mRNA: relative to control (Figures 2B, 2C); for concentration range of bioactivity / COL10A1 mRNA expression: 24 h; for concentration range of bioactivity: concentration series 1-1,000 nM; for COL10A1 mRNA expression: pool of 18 OA-HACs, 100 nM peptide, versus control (Figure 1B)", "description": "To investigate whether BMP7 harbors potential peptide sequences that improve the OA chondrocyte phenotype, a peptide library was designed from the mature 139 amino acid-long human BMP7 sequence (Table S2). The peptide library was designed as 20-mer peptides with 2 amino acid intervals (18 amino acid overlap) between individual peptides and with all cysteine residues substituted by serine residues to avoid uncontrolled oxidation of cysteine groups. This yielded 61 individual peptides covering the complete mature human BMP7 sequence (Figure 1A). The peptide library was screened using a pool of primary human OA articular chondrocytes (OA-HACs) from 18 individual donors. Prior to pooling, individual OA-HAC isolates were tested for their responsiveness to BMP7 (Figure S1). The screening was conducted by exposing the OA-HAC pool for 24 h to a concentration series (1, 10, 100, or 1,000 nM) of each peptide from the library. […] This is defined as reduced expression of collagen type X alpha 1 chain (COL10A1), alkaline phosphatase (ALPL), Runt-related transcription factor 2 (RUNX2), ADAMTS5, MMP13, prostaglandin-endoperoxide synthase 2 or cyclooxygenase-2 (COX-2), and interleukin 6 (IL6) and increased expression of SRY-box transcription factor 9 (SOX9), COL2A1, and NKX3-2. […] Representative peptides inducing the above gene expression characteristics in OA-HACs were selected from both regions for further investigation. These were peptide p[63−82] and p[113−132] from the library, covering amino acids 63−82 and 113−132 of the mature BMP7 amino acid sequence. The complete quantitative real-time PCR data for peptides p[63−82] and p[113−132] […] For the two candidate peptides, we validated data using an independent cohort of three OA-HACs exposed to 100 nM of p[63−82] or p[113−132] or a combination of both peptides. […] Taken together, two regions in BMP7 were identified delivering peptide sequences that are able to improve the OA chondrocyte phenotype.\nFigure 1 BMP7 peptide library screening on primary human OA articular chondrocytes (OA-HACs) (A) Schematic representation of the design of the human BMP7 peptide library. (B) COL10A1 mRNA expression in samples from the library screening on a pool of 18 OA-HACs individually exposed for 24 h to the peptides (100 nM) in the library. Data are shown as compared to the control condition (white bar) and full-length BMP7 (1 nM; gray bar). The two blue bars represent candidate peptides p[63−82] and p[113−132]. […] Error bars represent mean ± SEM, and statistical significance for peptide condition or BMP7 versus control condition as determined by unpaired two-tailed Student’s t test is represented as ∗p < 0.05, ∗∗p < 0.01, and ∗∗∗p < 0.001; NS, not significant.\nFigure 2 Bioactivity of BMP7-derived peptides p[63−82] and p[113−132] on OA-HACs Complete peptide library screening quantitative real-time PCR dataset for peptides p[63−82] and p[113−132] is presented. (A) SOX9, COL2A1, and NKX3-2 mRNA expression in the 18 OA-HAC pool exposed to 1,000, 100, 10, or 1 nM of peptide p[63−82] and p[113−132] is shown and presented relative to control (black bars) and alongside full-length BMP7 (white bars). (B) Similar to (A) but for chondrocyte hypertrophy-associated genes RUNX2, COL10A1, and ALPL. (C) Similar to (A) but for cartilage extracellular matrix remodeling-associated genes MMP13 and ADAMTS5 and inflammation-related genes COX-2 and IL-6. (D) Glycosaminoglycan (GAG) content (normalized to total protein content) on an independent cohort of three individual OA-HAC donors treated with 100 nM peptides p[63−82] and p[113−132] for 24 h. (E) Alkaline phosphatase (ALP) activity (normalized to total protein content) in similar samples from (D). (F) Prostaglandin E2 (PGE2) levels in culture supernatant in similar samples from (D). […]"}
{"substance": "BMP7: full-length recombinant bone morphogenetic protein 7 (R&D Systems), used at 1 nM", "values": [{"measurement": "chondrocyte COX-2, IL-6, and PGE2 levels", "setting": "full-length BMP7 1 nM, OA-HACs", "value": "attenuation"}]}
{"substance": "H-SVLYFDDSSNVILKKYRNMV-OH [p[113−132]]", "values": [{"measurement": "expression of SOX9, COL2A1, and NKX3-2 mRNA", "setting": "pool of 18 OA-HAC donors", "value": "induced"}, {"measurement": "expression of RUNX2, COL10A1, ALPL, MMP13, ADAMTS5, COX-2, and IL6 mRNA", "setting": "pool of 18 OA-HAC donors", "value": "inhibited"}, {"measurement": "concentration range of bioactivity", "setting": "pool of 18 OA-HAC donors", "value": "low nanomolar range"}, {"measurement": "COL10A1 mRNA expression", "value": "significantly downregulated"}]}
{"substance": "H-AAYYSEGESAFPLNSYMNAT-OH [p[63−82]]", "values": [{"measurement": "expression of SOX9, COL2A1, and NKX3-2 mRNA", "setting": "pool of 18 OA-HAC donors", "value": "induced"}, {"measurement": "expression of RUNX2, COL10A1, ALPL, MMP13, ADAMTS5, COX-2, and IL6 mRNA", "setting": "pool of 18 OA-HAC donors", "value": "inhibited"}, {"measurement": "concentration range of bioactivity", "setting": "pool of 18 OA-HAC donors", "value": "low nanomolar range"}, {"measurement": "COL10A1 mRNA expression", "value": "significantly downregulated"}]}
{"substance": "H-SEASPAMYYLNATANFYESG-OH [scrambled p[63−82], scrambled version of peptide p[63−82], reference compound]", "values": [{"measurement": "sequence specificity: expression of COL2A1, RUNX2, COL10A1, and COX-2", "setting": "pool of 18 OA-HAC donors, scrambled peptides 100 nM, 24 h (Figure 2G)", "value": "neither one of them was able to recapitulate the bioactivity"}]}
